According to PubChem BioAssay AID1996:
≈ marks a conversion by molar mass, not a printed value.

conditions: buffer; pH 7.4; 200.0 µM

solubility kinetic | SMILES
53.9 µg/mL (≈ 119 µM) | COc1ccccc1NS(=O)(=O)c1ccc(C(=O)N2CCN(c3ccccn3)CC2)cc1
12.8 µg/mL (≈ 40.8 µM) | NS(=O)(=O)c1ccc(CNc2ccc3ccccc3n2)cc1
40.8 µg/mL (≈ 128 µM) | O=C(CSc1nccc(=O)[nH]1)Nc1ccc2c(c1)OCCO2
35.6 µg/mL (≈ 139 µM) | Fc1cccc(NCCc2c[nH]c3ccccc23)n1
43.8 µg/mL (≈ 133 µM) | CN(C)/C=C(\c1cnc(Cl)s1)S(=O)(=O)c1ccccc1
5.1 µg/mL (≈ 16.8 µM) | O=C(c1cc2ccccc2o1)N1CC=C(c2ccccc2)CC1
19.1 µg/mL (≈ 60.4 µM) | CCOCCCNC(=O)/C(C#N)=C/c1ccc(C(=O)OC)cc1
33.2 µg/mL (≈ 102 µM) | COc1cc2c(cc1OC)CC(C(=O)NCc1ccccc1)NC2 (stereo unspecified)
1 µg/mL (≈ 3.26 µM) | COc1ccc(CCC(=O)Nc2cnc3ccccc3c2)cc1
5.4 µg/mL (≈ 20.1 µM) | COC(=O)c1ccc(NC(=O)c2cccc(C)c2)cc1
52.9 µg/mL (≈ 123 µM) | COc1ccccc1N1CCN(C(=O)c2c(-c3c(F)cccc3Cl)noc2C)CC1
> 45.7 µg/mL | Cc1ccc(C(C)C)c(OCC(=O)NC2CCN(C)CC2)c1
1.1 µg/mL (≈ 2.87 µM) | O=C(Nc1ccc(NC(=O)c2ccccc2O)cc1)Nc1ccc(F)cc1F
> 59.6 µg/mL | COc1ccc(CC(=O)Nc2nccs2)cc1S(=O)(=O)N1CCOCC1
> 40.1 µg/mL | CCc1nc2cccnc2n1-c1ccc(C(=O)O)cc1
> 32.4 µg/mL | CCC(CC)c1nc2ccccc2c(=O)[nH]1
3.9 µg/mL (≈ 14.4 µM) | Cc1ccc(C(=O)N2C(=O)c3cccc(N)c3C2=O)o1
7.6 µg/mL (≈ 29.7 µM) | O=C(Nc1cc(Cl)ccc1Cl)c1ccco1
> 65.3 µg/mL | CNS(=O)(=O)c1cccc(C(=O)OCC(=O)N2CCN(C(=O)c3ccco3)CC2)c1
5.1 µg/mL (≈ 15.9 µM) | CCCOc1ccccc1/C=C(\C#N)C(=O)Nc1cccc(C)n1
> 39.9 µg/mL | Cc1ccccc1N=C1NC(=O)C(CO)(CO)S1
> 44.2 µg/mL | CC(=O)Nc1ccc(C(=O)N2CCCc3ccccc32)cc1
> 36.5 µg/mL | Cc1[nH]c2ccccc2c1-c1nc(N)sc1C
28.4 µg/mL (≈ 104 µM) | O=C(CN1CCCC1)Nc1cccc(Cl)c1Cl

solubility kinetic | SMILES
> 34.1 µg/mL | Cc1ccccc1N=C(NO)c1cccnc1
> 46.1 µg/mL | Cc1ccc(NC(=S)NCCCN2CCOCC2)cc1C
25.9 µg/mL (≈ 129 µM) | CCN(CC)c1cc(Cl)nc(N)n1
46.6 µg/mL (≈ 143 µM) | CCOc1ccc(NC(=S)NCc2nc3ccccc3[nH]2)cc1
> 43.9 µg/mL | Cc1ccc(N2CC(C(=O)NC3CC3)CC2=O)cc1Cl (stereo unspecified)
> 46.6 µg/mL | Cc1ccc(OC(C)C(=O)N2CC(=O)Nc3ccccc32)cc1 (stereo unspecified)
10.8 µg/mL (≈ 35.2 µM) | Cc1nc(-c2ccccc2Cl)sc1C(=O)/C=C/N(C)C
1.6 µg/mL (≈ 5.06 µM) | COc1ccccc1Cn1c(=S)[nH]c2ccc(F)cc2c1=O
38.8 µg/mL (≈ 146 µM) | O=C(COc1ccc(F)cc1)N1CCCCCCC1
> 48.4 µg/mL | OCCC1CN(CC2CCCCC2)CCN1CC1CCCCC1 (stereo unspecified)
< 0.7 µg/mL | COc1ccc(CNC(=O)c2cc(=O)c3c(C)cc(C)cc3o2)cc1
19 µg/mL (≈ 56.6 µM) | COc1cccc(C(=O)NC(C)c2cccc3ccccc23)c1OC (stereo unspecified)
> 50.3 µg/mL | O=C(Nc1ccccc1C(F)(F)F)N1CCCC1c1cccnc1 (stereo unspecified)
> 54.9 µg/mL | O=C(Nc1ccc(C(=O)O)cc1)/C(=C\c1ccco1)NC(=O)c1ccco1
2.1 µg/mL (≈ 7.66 µM) | O=C(NC1CCCC1)c1cc(-c2ccc(F)cc2)on1
> 32.9 µg/mL | CN1C(N)=NC(=O)/C1=C/c1ccc(F)cc1
33.2 µg/mL (≈ 97.8 µM) | Cc1c(C(=O)N2CCN(c3ccccn3)CC2)oc2c(F)cccc12
0.9 µg/mL (≈ 2.49 µM) | COc1ccc(N2C(=O)CC(SCc3ccc(Cl)cc3)C2=O)cc1 (stereo unspecified)
1.3 µg/mL (≈ 4.31 µM) | CC(=O)c1c(C)[nH]c(C(=O)OCCOc2ccccc2)c1C
> 51.6 µg/mL | O=C(/C(=C/c1cccnc1)n1ccnc1)c1ccc(Cl)cc1Cl
> 53.4 µg/mL | CC12CCC(C(=O)NC3CCCCC3)([C@H](Br)C1=O)C2(C)C (stereo partly specified)
> 53.3 µg/mL | COc1ccc(CNc2ncnc3cc(OC)c(OC)cc23)cc1OC
7 µg/mL (≈ 20.7 µM) | Cc1ccc(SCCC(=O)OC(C(=O)NC(N)=O)C(C)C)cc1 (stereo unspecified)
> 55.1 µg/mL | CCN(Cc1ccccc1)C(=O)COC(=O)c1cc(Cl)nc(Cl)c1

solubility kinetic | SMILES
47.6 µg/mL (≈ 146 µM) | CCCN1CCC(NC(=O)Nc2cc(Cl)ccc2OC)CC1
29.9 µg/mL (≈ 122 µM) | Cc1ccc(C)c(SCC(=O)c2ccc[nH]2)c1
> 45.4 µg/mL | CC(C)(C)c1ccc(C(=O)NCCC(=O)N2CCCC2)cc1
4.6 µg/mL (≈ 15.6 µM) | COc1ccc(C2C(C#N)=C(C)NC(C)=C2C#N)c(OC)c1
1.1 µg/mL (≈ 3.21 µM) | Oc1ccc(/C=C/c2ccc3cccc(O)c3n2)cc1Br
42.6 µg/mL (≈ 145 µM) | CC(C)(C)C(=O)Nc1ccc(-c2cn3cccnc3n2)cc1
> 38.9 µg/mL | CCC(=O)Oc1ccc(NC(=O)c2ccco2)cc1
19.6 µg/mL (≈ 69.9 µM) | Nc1c(Cl)cnc(C(Cl)(Cl)Cl)c1Cl
> 70 µg/mL | COc1cc(OC)cc(C(=O)N[C@H](C(=O)Nc2c(C)n(C)n(-c3ccccc3)c2=O)C(C)C)c1
> 45 µg/mL | Cn1cccc1C(=O)OCC(=O)NC1CCS(=O)(=O)C1 (stereo unspecified)
38.9 µg/mL | Cc1cccc(C(=O)OC(C)CN2CCOCC2)c1.Cl (stereo unspecified)
> 46.5 µg/mL | O=C(CNC(=O)c1ccco1)Nc1ccc(OC(F)F)cc1
< 0.4 µg/mL | CCOC(=O)c1sc(=NC(=O)c2ccc(OC(C)C)cc2)n(C)c1C
> 46.6 µg/mL | CCOc1ccc(N2C(=O)c3ccccc3NC2(C)CC)cc1 (stereo unspecified)
26.8 µg/mL (≈ 101 µM) | CCN(CC)C(=S)SC1=CCS(=O)(=O)C1
39.3 µg/mL (≈ 127 µM) | O=C(COC(=O)c1cccnc1)NC1CCCc2ccccc21 (stereo unspecified)
< 0.2 µg/mL | CC(C)(C)Nc1ncnc2sc(-c3ccccc3)cc12
9 µg/mL (≈ 28.4 µM) | Cc1ccc(Nc2nc(C(=O)NCC3CCCO3)cs2)cc1 (stereo unspecified)
5.9 µg/mL (≈ 19 µM) | O=C(NCCc1ccc(Cl)cc1)c1ccc2ccccc2n1
21.2 µg/mL (≈ 57.4 µM) | COc1ccc(CNC(=O)CSc2nc3ccccc3n2C(C)=O)cc1
36.6 µg/mL (≈ 134 µM) | Fc1ccccc1CSCc1nc2ccccc2[nH]1
> 34.4 µg/mL | Cn1c(C2CCCCC2)nc2cc(N)ccc21
> 31.8 µg/mL | Cc1nc2ccccc2c2c1C(=O)NC2=O
> 37.1 µg/mL | CC1CCCN(C(=O)c2ccc3c(c2)OCO3)C1 (stereo unspecified)

solubility kinetic | SMILES
1.2 µg/mL (≈ 3.82 µM) | CC(NC(=O)/C=C/c1ccccc1[N+](=O)[O-])C1CC2CCC1C2 (stereo unspecified)
32.5 µg/mL (≈ 115 µM) | COc1ccc(C(=O)NCc2ccc3c(c2)CCO3)cc1
> 37.8 µg/mL | CCCCNC(=O)C(=O)NCCCn1ccnc1
2 µg/mL (≈ 6.13 µM) | O=C(Nc1ccccc1F)c1ccc(-c2cccc([N+](=O)[O-])c2)o1
> 49.9 µg/mL | CC1CCCC(C)N1C(=O)COC(=O)CNC(=O)c1ccccc1 (stereo unspecified)
> 49.3 µg/mL | O=C(CCc1ccccc1)NC(=S)Nc1cccc(C(=O)O)c1
5.5 µg/mL (≈ 16.4 µM) | Cc1cccc2nc(C(=O)Nc3cccc(C(=O)NC4CC4)c3)cn12
48.5 µg/mL (≈ 143 µM) | Cc1cc(C)cc(N(CC(=O)N2CCCCCC2)S(C)(=O)=O)c1
> 45.7 µg/mL | O=C(NC1CCC1)C1CCC(=O)N(Cc2cccc(F)c2)C1 (stereo unspecified)
> 38.1 µg/mL | CN(C)c1cccc(C(=O)NCc2ccccc2)c1
5.3 µg/mL (≈ 9.55 µM) | COc1cc(/C=C/C(=O)OCC(=O)Nc2cc(S(=O)(=O)N3CCOCC3)ccc2Cl)cc(OC)c1OC
7.8 µg/mL (≈ 24.1 µM) | O=C1[C@@H]2C(c3ccc(F)cc3)=NO[C@@H]2C(=O)N1Cc1ccccc1
> 42.5 µg/mL | Cc1ccccc1-c1noc(CNC(=O)c2ccco2)n1
43.1 µg/mL (≈ 119 µM) | COC(=O)C1CN(C(=O)c2ccc(OC(F)F)cc2)c2ccccc2O1 (stereo unspecified)
> 51.5 µg/mL | COc1ccc(OCC(=O)N(C)CC2COc3ccccc3O2)cc1 (stereo unspecified)
> 36 µg/mL | O=C(Cc1ccccc1Cl)N1CCOCC1
> 52.3 µg/mL | Cc1ccc(C(=O)NCC(c2ccc(F)cc2)N2CCOCC2)s1 (stereo unspecified)
7.5 µg/mL (≈ 20.5 µM) | CC1(C)Cc2cccc(OCC(=O)Nc3ccccc3C(F)(F)F)c2O1
> 31.6 µg/mL | O=C1CNC(=O)N1c1ccc(Cl)cc1
34.6 µg/mL (≈ 134 µM) | Cc1cc(C)cc(NC(=O)CCc2ccc(C)o2)c1
> 40.1 µg/mL | O=C(CCc1ccccc1)NC1CCS(=O)(=O)C1 (stereo unspecified)
43 µg/mL (≈ 142 µM) | CN(C)C(CNC(=O)CCOc1ccccc1)c1ccco1 (stereo unspecified)
1.2 µg/mL (≈ 2.94 µM) | COc1ccc(N(CC(=O)NC2CCCCC2)S(=O)(=O)c2cccs2)cc1
6.5 µg/mL (≈ 17.1 µM) | CCOc1ncccc1C(=O)Nc1cc2c(cc1Br)OCCO2

solubility kinetic | SMILES
26.3 µg/mL (≈ 140 µM) | O/N=C/c1ccc2cccc(O)c2n1
52.9 µg/mL (≈ 148 µM) | O=C(O)CCN1C(=O)c2ccc(Oc3ccc([N+](=O)[O-])cc3)cc2C1=O
1.7 µg/mL (≈ 6.26 µM) | Cc1c(C(=O)NC2CCCCC2C)oc2ccccc12 (stereo unspecified)
35.6 µg/mL (≈ 109 µM) | COC(=O)c1scc(S(=O)(=O)C(C)(C)C)c1-n1cccc1
> 41.4 µg/mL | O=C(c1ccc(Cl)cc1Cl)N1CCSCC1
> 56.9 µg/mL | O=C(CN1C(=O)NC2(CCOc3ccccc32)C1=O)NCCc1ccccc1 (stereo unspecified)
> 39.2 µg/mL | CC1CC1C(=O)OCC(=O)NC(=O)c1ccccc1 (stereo unspecified)
1.8 µg/mL (≈ 7 µM) | Nc1ncnc(N2CCc3ccccc32)c1[N+](=O)[O-]
2.4 µg/mL (≈ 6.5 µM) | CC(C)c1ccc2nc(SCC(=O)NCC3CCCO3)c(C#N)cc2c1 (stereo unspecified)
> 31.1 µg/mL | Oc1ccccc1C(=S)N1CCCC1
> 43.5 µg/mL | COc1cccc(Nc2c([N+](=O)[O-])cncc2[N+](=O)[O-])c1
> 41.6 µg/mL | O=C(O)C1CCCN1C(=O)C12CC3CC(CC(C3)C1)C2 (stereo unspecified)
18.3 µg/mL (≈ 83.5 µM) | O=C(NC1CCCCC1)Oc1ccccc1
40.8 µg/mL (≈ 138 µM) | O=C(NCc1ccccn1)Nc1cc(Cl)cc(Cl)c1
49 µg/mL (≈ 140 µM) | O=S(=O)(CCN1CCN(c2ccccn2)CC1)c1ccc(F)cc1
41.3 µg/mL (≈ 138 µM) | O=S(=O)(NCc1cccnc1)c1ccc2ccccc2c1
9.4 µg/mL (≈ 34.3 µM) | COc1ccc(/C=C/C2=CC(C)(C)NC(=S)N2)cc1
> 28.5 µg/mL | O=C(NCC1CC1)Nc1ccccc1
> 43.3 µg/mL | O=C1CCCN1CCCNS(=O)(=O)c1cccs1
9.3 µg/mL (≈ 37.9 µM) | Cc1ccc(CC(=O)NCC2CCCCC2)cc1
5.5 µg/mL (≈ 16.8 µM) | C=CCN=C1S/C(=C\c2ccc(N(C)C)cc2)C(=O)N1CC=C
27 µg/mL (≈ 72.3 µM) | O=C(NC(=S)Nc1ccc(CN2CCOCC2)cc1)c1cccc(F)c1
< 0.8 µg/mL | CCOc1cc(C(=O)NC)cc(Br)c1OCc1ccccc1
> 50.1 µg/mL | O=C(COc1ccccc1Cl)NCCNC(=O)c1ccncc1

SMILES | solubility kinetic
NC(Cc1ccccc1)c1nc(-c2ccccc2)no1 (stereo unspecified) | > 39.8 µg/mL
